Read-outs that look alike come from different tables or passages of the source.
Legend:
p53 = assay: Immunoblot for p53; assay type: cell-based, human; details: cell lines studied; data not shown
Procedure: Cells were lysed and proteins were isolated and quantitated by immunoassay as previously detailed using 2 μg/ml of primary rabbit polyclonal antibodies against human bcl-2, p53, p21^WAF1/CiP1, cyclin A and cyclin B1, and peroxidase-labeled donkey polyclonal anti-rabbit IgG. Cells were placed on ice, washed twice with cold DPBS, scraped into 0.5 ml boiling buffer (10% [vol/vol] glycerol and 2% [wt/vol] sodium dodecyl sulfate [SDS] in 83 mM Tris, pH 6.8) and sheared by four passages through a pipette. Aliquots were removed for protein determination, using the BCA protein assay (Pierce). After 10% β-mercaptoethanol and 0.05% bromophenol blue were added, lysates were boiled for 5 min and stored at −80° C. until immunoblotting was performed. Proteins in defrosted samples were separated by SDS-polyacrylamide gel electrophoresis on 12% polyacrylamide gels (15 μg protein/lane) and electrotransferred to 0.45 μm Hybond ECL nitrocellulose membranes (Amersham Life Sciences) using the wet transblot method in transfer buffer (0.025 M Tris, 0.192 M glycine, 2.6 mM SDS, and 20%[vol/vol] methanol; pH 8.8) at 100 volts for 1 hour. […] Immunoblots were rinsed again as above and detected via an enhanced chemiluminescence method (ECL Western blotting detection system, Amersham Life Science, Buckinghamshire, England). […]

Melanoma M1585 = assay: MTT proliferation assay, M1585 melanoma; assay type: cell-based; details: Homo sapiens; for inhibition at 0.625 µM: disulfiram 0.625 μM; for inhibition at 0.625 µM / inhibition at 1.25 µM / inhibition at 2.5 µM / inhibition at 5 µM: read-out: Mean Percent Inhibition of Growth; for inhibition at 1.25 µM: disulfiram 1.25 μM; for inhibition at 2.5 µM: disulfiram 2.5 μM; for inhibition at 5 µM: disulfiram 5.0 μM
Procedure: Human malignant cell lines were obtained from American Type Tissue Culture Collection (Rockville, Md.). Melanoma cells lines CRL 1585 and 1619 were cultured in RPMI 1640 (GIBCO-BRL, Life Technologies, Grand Island, N.Y.) with 10% FBS and passed with nonenzymatic Cell Dissociation Solution® (Sigma). The prostate adenocarcinoma cell line CRL 1435 (PC-3) was also cultured in RPMI 1640 with 10% FBS but passed with 0.05% trypsin and 0.53 mM EDTA. The squamous lung carcinoma NCI-H520 and the adenosquamous lung carcinoma NCI-H596 cell lines were grown in RPMI 1640 supplemented with 10% FBS, 10 mM HEPES and 1.0 mM sodium pyruvate and passed with trypsin/EDTA. The small cell lung carcinoma NCI-H82 was cultured as a suspension in RPMI 1640 with 10% FBS. All of the above were grown in a 37° C. humidified environment containing 5% CO2/air. The breast carcinoma cell line MDA-MB-453 was grown in a 37° C. humidified environment with free gas exchange with atmospheric air using Leibovitz's L-15 medium with 2 mM L-glutamine and 10% FBS and was passed with trypsin/EDTA.
The effect of disulfiram (0.15 to 5.0 μM), diethyldithiocarbamate (DDC, 1.0 μM) or PDTC (0.625 to 5.0 μM) on proliferation of malignant cell lines was studied in cultures stimulated with 10% FBS. Cell numbers were quantitated 24-72 hours later. In some experiments disulfiram or PDTC were added immediately after cells were plated. In other experiments, cells were plated and allowed to grow for 24-72 hours before fresh media with disulfiram or PDTC was added, and cell numbers were assayed 24-72 hours later. Synergy was studied between disulfiram and N,N′-bis(2-chloroethyl-N-nitrosourea (carmustine or BCNU, 1.0 to 1,000 μM) or cisplatin (0.1 to 100 μg/ml) added to medium. The effect of metals on disulfiram was studied with 0.2 to 10 μM copper (provided as CuSO4), zinc (as ZnCl2), silver (as silver lactate) or gold (as HAuCl4.3H2O) ions added to growth medium. No pH changes occurred with addition of metal salts to culture medium. To provide a biologically relevant source of copper, in some experiments medium was supplemented with human ceruloplasmin at doses replicating low and high normal adult serum concentrations (250 and 500 μg/ml).
Proliferation of cultured cells was quantitated using a previously reported calorimetric method based upon metabolic reduction of the soluble yellow tetrazolium dye 3-[4,5-dimethylthiazol]-2yl-2,5-diphenyl tetrazolium bromide (MTT) to its insoluble purple formazan by the action of mitochondrial succinyl dehydrogenase (See, e.g., S. J. Hirst, et al., “Quantifying proliferation of cultured human and rabbit airway smooth muscle in response to serum and platelet derived growth factor,” Am. J. Respir. Cell Mol. Biol. 7:574-581 (1992); R. Dashtaki, et al. R., supra; S. S. Brar, et al., “Requirement for reactive oxygen species in serum-induced and platelet-derived growth factor-induced growth of airway smooth muscle,” J. Biol. Chem. 274:20017-20026 (1999)). This assay empirically distinguishes between dead and living cells. For proliferation studies, cells were seeded into 24-well uncoated plastic plates (Costar) at 50,000 cells per well and cultured with respective media and mitogens. After 24-96 hours, medium was removed, cells were washed twice with 1 ml of sterile Dulbecco's modified phosphate buffered saline without Ca^2+ or Mg^2+ (DPBS), the medium was replaced with 1 ml/well fresh medium containing 100 μg/ml MTT, and plates were incubated an additional hour. MTT-containing medium was removed, 0.5 ml dimethylsulfoxide (DMSO) was added to each well, and the absorbance of the solubilized purple formazan dye was measured at 540 nm. A total of 4-6 wells were studied at each treatment condition. Preliminary studies were performed with 50-200 μg/ml MTT incubated for 15 minutes to 3 hours to determine the optimum concentration and incubation time at which the rate of conversion was linear and proportional to the number of cells present. […]

[1] = treatment after 24 hours of growth
[2] = treatment initially, after 48 hours, 10% FBS

Q: With `CCN(CC)C(=S)SSC(=S)N(CC)CC` [Disulfiram, tetraethylthiuram disulfide] as the compound, how does the “expression of p53” value (p53) read?
A: no consistent effect

Q: And the IC50 (Melanoma M1585; M1585 melanoma cells, read-out: 50% inhibitor concentration (IC50))?
A: 300 nM

Q: And the inhibition at 0.625 µM (Melanoma M1585; [1])?
A: 74 ± 4%

Q: And the inhibition at 0.625 µM (Melanoma M1585; [2])?
A: 100%

Q: And the inhibition at 1.25 µM (Melanoma M1585; [1])?
A: 49 ± 7%

Q: What about the inhibition at 1.25 µM (Melanoma M1585; [2]) of the same compound?
A: 100%

Q: What about the inhibition at 2.5 µM (Melanoma M1585; [1]) of the same compound?
A: 41 ± 2%

Q: And the inhibition at 2.5 µM (Melanoma M1585; [2])?
A: 100%

Q: What about the inhibition at 5 µM (Melanoma M1585; [1]) of the same compound?
A: 37 ± 6%

Q: And the inhibition at 5 µM (Melanoma M1585; [2])?
A: 100%
